This test has as its target Human immunodeficiency virus type 1 reverse transcriptase (Human immunodeficiency virus 1, UniProt Q72547). In words: Inhibition of HIV-1 reverse transcriptase after 1 hr by ELISA plate reader analysis.

The term IC50 denotes the midpoint of a concentration-inhibition curve. A lower IC50 goes with higher potency. With `O=C1c2ccccc2S[C@H]2[C@@H](O)[C@@H](O)[C@H](O)CN12`, half-maximal inhibition (IC50) required 1.58 µM.
`O=C1c2ccccc2S[C@@H]2[C@@H](O)[C@@H](O)[C@H](O)CN12` displayed a 50% inhibitory concentration (IC50) of 3.83 µM.
The compound `O=C1CCS[C@H]2[C@@H](O)[C@@H](O)[C@H](O)[C@H](CO)N12` yielded a 50% inhibitory concentration (IC50) of 12.9 µM.
Consider `O=C1c2ccccc2S[C@H]2[C@@H](O)[C@@H](O)[C@H](O)[C@H](CO)N12`, for which the IC50 was 0.49 µM.
Consider `O=C1c2cccnc2S[C@H]2[C@@H](O)[C@@H](O)[C@H](O)[C@H](CO)N12`, for which the 50% inhibitory concentration (IC50) was determined as 31.4 µM.
Next, `O=C1CCS[C@@H]2[C@@H](O)[C@@H](O)[C@H](O)[C@@H](CO)N12`: 1.41 µM; `O=C1c2cccnc2S[C@@H]2[C@@H](O)[C@@H](O)[C@H](O)[C@@H](CO)N12`: 53.8 µM.
In the case of `O=C1CCS[C@@H]2[C@@H](O)[C@@H](O)[C@H](O)[C@H](CO)N12`, half-maximal inhibition (IC50) was put at 6.02 µM.
The compound `O=C1c2ccccc2S[C@@H]2[C@@H](O)[C@@H](O)[C@H](O)[C@H](CO)N12` came in with an IC50 of 1.32 µM.
`O=C1c2cccnc2S[C@@H]2[C@@H](O)[C@@H](O)[C@H](O)[C@H](CO)N12` registered an IC50 of 26.8 µM.
The figure for `O=C1c2ccccc2S[C@@H]2[C@@H](O)[C@@H](O)[C@H](O)[C@@H](CO)N12` is 19.7 µM.

These data come from ChEMBL document CHEMBL3352162, “Synthesis of bi-/tricyclic azasugars fused thiazinan-4-one and their HIV-RT inhibitory activity” (Bioorg Med Chem Lett, 2014).
